Activity and Survival data for six compounds are collected here from ChEMBL document CHEMBL3867434, “Regiospecific Prenylation of Hydroxyxanthones by a Plant Flavonoid Prenyltransferase” (J Nat Prod, 2016).

Activity calls are given as the source filed them. No cut-off for these calls is given here.

A short description of one test: Neuroprotective activity in human SK-N-SH cells assessed as inhibition of glutamate-induced injury by measuring increase in cell viability at 10 uM preincubated for 4 hrs followed by glutamate addition measured after 4 hrs by MTT assay. The class given is functional, cell-based. In general terms: Formazan colour is commonly taken as a measure of viable cells.
For the compound `CC(C)=CCc1c(O)cc2oc3ccc(O)cc3c(=O)c2c1O`, the result was Active.

For the compound `O=c1c2cc(O)ccc2oc2cc(O)cc(O)c12`, the outcome was Active.

For `O=c1c2c(O)cc(O)cc2oc2cc(O)cc(O)c12`, the outcome was Active.

Consider `CC(C)=CCc1c(O)cc2oc3cc(O)cc(O)c3c(=O)c2c1O`, for which the outcome was Active.

On to `CC(C)=CCc1c(O)cc2oc3cc(O)c(CC=C(C)C)c(O)c3c(=O)c2c1O`, for which the outcome was Active.

Another test is described as follows: Neuroprotective activity in human SK-N-SH cells assessed as inhibition of glutamate-induced injury by measuring cell survival at 10 uM preincubated for 4 hrs followed by glutamate addition measured after 4 hrs by MTT assay relative to control. The class given is functional, cell-based.
As for `CC(C)=CCc1c(O)cc2oc3ccc(O)cc3c(=O)c2c1O`, the Survival was found to be 82.9%.

For the compound `Oc1ccc(/C=C/c2cc(O)cc(O)c2)cc1`, the Survival amounted to 79.9%.
